Data: patent US4223024A, “4"-O-Alkylgentamicins and sagamicins” (Abbott Laboratories, priority 1979, dated 1980)
Values after ≈ are worked out from the molar mass of the structure shown.

How the values were obtained:
[1] = test system: Pseudomonas aeruginosa BMH #1; assay: two fold dilution test (MIC), Pseudomonas aeruginosa BMH #1; assay type: cell-based; conditions: Streptomycin Assay Agar with yeast extract, pH 7.9, overnight
Experimental: (§1) The in vitro antibiotic activity is determined by a two fold dilution test using Streptomycin Assay Agar with yeast extract (at pH 7.9). The inoculum of approximately 1×10^5 of the indicated test organism is delivered by a multiple inoculator. The test is incubated over night.
(§2) The minimum inhibitory concentrations for the compounds of Example 4, Example 8, compound 1 and Example 12 compound, are set forth in Table II. The minimum inhibitory concentrations (MIC) are expressed in micrograms per ml.

[2] = test system: Shigella sonnei ATCC 9290; assay: two fold dilution test (MIC), Shigella sonnei ATCC 9290; assay type: cell-based; conditions: pH 7.9, overnight; for MIC (minimum inhibitory concentration): Streptomycin Assay Agar with yeast extract
Experimental: as §1, §2

[3] = test system: Streptococcus faecalis ATCC 10541; assay: two fold dilution test (MIC), Streptococcus faecalis ATCC 10541; assay type: cell-based; conditions: pH 7.9, overnight; for MIC (minimum inhibitory concentration): Streptomycin Assay Agar with yeast extract
Experimental: as §1, §2

[4] = test system: Proteus vulgaris ATCC 6897; assay: two fold dilution test (MIC), Proteus vulgaris ATCC 6897; assay type: cell-based; conditions: pH 7.9, overnight; for MIC (minimum inhibitory concentration): Streptomycin Assay Agar with yeast extract
Experimental: as §1, §2

[5] = test system: Escherichia coli ATCC 26; assay: two fold dilution test (MIC), Escherichia coli ATCC 26; assay type: cell-based; conditions: pH 7.9, overnight; for MIC (minimum inhibitory concentration): Streptomycin Assay Agar with yeast extract
Experimental: as §1, §2

[6] = test system: Staphylococcus aureus ATCC 6538P; assay: two fold dilution test (MIC), Staphylococcus aureus ATCC 6538P; assay type: cell-based; conditions: Streptomycin Assay Agar with yeast extract, pH 7.9, overnight
Experimental: as §1, §2

[7] = test system: Klebsiella pneumonia ATCC 10031; assay: two fold dilution test (MIC), Klebsiella pneumonia ATCC 10031; assay type: cell-based; conditions: pH 7.9, overnight; for MIC (minimum inhibitory concentration): Streptomycin Assay Agar with yeast extract
Experimental: as §1, §2

[8] = test system: Escherichia coli R3; assay: two fold dilution test (MIC), Escherichia coli R3; assay type: cell-based; conditions: Streptomycin Assay Agar with yeast extract, pH 7.9, overnight
Experimental: as §1, §2

[9] = test system: Salmonella typhi ATCC 9992; assay: two fold dilution test (MIC), Salmonella typhi ATCC 9992; assay type: cell-based; conditions: for MIC (minimum inhibitory concentration): Salmonella typhi ATCC 9992, Streptomycin Assay Agar with yeast extract, pH 7.9, overnight
Experimental: as §1, §2

[10] = test system: Bacillis subtilis U. of I1. 10707; assay: two fold dilution test (MIC), Bacillis subtilis U. of I1. 10707; assay type: cell-based; conditions: Streptomycin Assay Agar with yeast extract, pH 7.9, overnight
Experimental: as §1, §2

[11] = compared with gentamicin; background statement; cited from earlier work
[12] = test system: aerobic gram-negative bacteria; conditions: background statement; cited from earlier work
[13] = read-out: MIC (minimum inhibitory concentration)

Compound: CNC1C(O)C(OC2C(N)CC(N)C(OC3OC(CN)CCC3N)C2O)OCC1(C)OC (centres unmarked) [Ex 4, 4"-O-Methylgentamicin C1a]
- MIC (minimum inhibitory concentration) [1]: 0.63 µg/mL (≈ 1.36 µM)
- MIC (minimum inhibitory concentration) [2]: 0.04 µg/mL (≈ 0.0863 µM)
- MIC (minimum inhibitory concentration) [3]: 10.000 µg/mL (≈ 21.6 µM)
- MIC (minimum inhibitory concentration) [4]: 0.08 µg/mL (≈ 0.173 µM)
- MIC (minimum inhibitory concentration) [5]: 0.005 µg/mL (≈ 0.0108 µM)
- MIC (minimum inhibitory concentration) [6]: 0.005 µg/mL (≈ 0.0108 µM)
- MIC (minimum inhibitory concentration) [7]: 0.005 µg/mL (≈ 0.0108 µM)
- MIC (minimum inhibitory concentration) [8]: 10.000 µg/mL (≈ 21.6 µM)
- MIC (minimum inhibitory concentration) [9]: 0.01 µg/mL (≈ 0.0216 µM)
- MIC (minimum inhibitory concentration) [10]: 0.005 µg/mL (≈ 0.0108 µM)

Compound: CNCC1CCC(N)C(OC2C(N)CC(N)C(OC3OCC(C)(OC)C(NC)C3O)C2O)O1 (centres unmarked) [Ex 8(1), 4"-O-Methylsagamicin]
- MIC [1, 13]: 0.4 µg/mL (≈ 0.838 µM)
- MIC ([2]; ATCC9290, Streptomycin Assay Agar with yeast extract, read-out: MIC (minimum inhibitory concentration)): 0.05 µg/mL (≈ 0.105 µM)
- MIC ([3]; Enterococcus faecalis, ATCC10541, Streptomycin Assay Agar with yeast extract, read-out: MIC (minimum inhibitory concentration)): 12.5 µg/mL (≈ 26.2 µM)
- MIC ([4]; ATCC6897, Streptomycin Assay Agar with yeast extract, read-out: MIC (minimum inhibitory concentration)): 0.05 µg/mL (≈ 0.105 µM)
- MIC ([5]; ATCC26, Streptomycin Assay Agar with yeast extract, read-out: MIC (minimum inhibitory concentration)): 0.05 µg/mL (≈ 0.105 µM)
- MIC ([6]; ATCC6538P, read-out: MIC (minimum inhibitory concentration)): 0.05 µg/mL (≈ 0.105 µM)
- MIC ([7]; Klebsiella pneumoniae, ATCC10031, Streptomycin Assay Agar with yeast extract, read-out: MIC (minimum inhibitory concentration)): 0.05 µg/mL (≈ 0.105 µM)
- MIC [8, 13]: 3.1 µg/mL (≈ 6.49 µM)
- MIC ([9]; Salmonella enterica, pH 7.9, read-out: MIC (minimum inhibitory concentration)): 0.05 µg/mL (≈ 0.105 µM)
- MIC [10, 13]: 0.005 µg/mL (≈ 0.0105 µM)

Compound: CNC1C(O)C(OC2C(N)CC(N)C(OC3OC(CN)CCC3N)C2O)OCC1(C)OC (stereo not drawn) [Ex 12, 5-Epi-4"-O-methylgentamicin C1a]
- MIC (minimum inhibitory concentration) [1]: 0.63 µg/mL (≈ 1.36 µM)
- MIC (minimum inhibitory concentration) [2]: 0.08 µg/mL (≈ 0.173 µM)
- MIC (minimum inhibitory concentration) [3]: 25.00 µg/mL (≈ 53.9 µM)
- MIC (minimum inhibitory concentration) [4]: 0.08 µg/mL (≈ 0.173 µM)
- MIC (minimum inhibitory concentration) [5]: 0.02 µg/mL (≈ 0.0431 µM)
- MIC (minimum inhibitory concentration) [6]: 0.005 µg/mL (≈ 0.0108 µM)
- MIC (minimum inhibitory concentration) [7]: 0.005 µg/mL (≈ 0.0108 µM)
- MIC (minimum inhibitory concentration) [8]: 2.5 µg/mL (≈ 5.39 µM)
- MIC (minimum inhibitory concentration) [9]: 0.01 µg/mL (≈ 0.0216 µM)
- MIC (minimum inhibitory concentration) [10]: 0.005 µg/mL (≈ 0.0108 µM)

Compound: CNCC1CCC(N)C(OC2C(N)CC(N)C(OC3OCC(C)(O)C(NC)C3O)C2O)O1 (centres unmarked) [Sagamicin, sagamicin]
- ototoxicity [11]: lower ototoxicity than does gentamicin

Compound: gentamicin
- anti-bacterial spectrum / effectiveness [12]: effective against most aerobic gram-negative bacteria
